Data from patent US20220218851A1, “COMPOUNDS AND METHODS FOR IMAGING IMMUNE ACTIVITY” (Board of Regents, The University of Texas System, priority 2019, published 2022).
Entries after “also recorded” stand apart in the source; their conditions may differ.

What was measured:
LPS-induced arthritis = assay: LPS-induced model of arthritis, PET imaging and L-012 BLI; assay type: in vivo, mouse
Method: Herein, C57BL6/N mice were injected i.a. with LPS, left ankle, or vehicle, right ankle. After 24 hours, mild inflammation of the left ankle was confirmed by visual inspection. 1 hour dynamic PET scans were acquired post i.v. injection of [^18F]4FN. Mice were subsequently imaged for ROS by BLI (L-012). A) 1 hour static [^18F]4FN PET image (left) and BLI (right). B) PET image-derived time-activity curves (TACs) were quantified for the ankles (left, n=4). […] C) H&E staining cross-validated local inflammation (vehicle, left panel; LPS, right panel), utilizing the same mouse as imaged in A. D) Image-based biodistribution was calculated from the dynamic PET/CT data and SUV plotted for various organs over time.
[^18F]4FN PET was employed to image a model of inflammatory arthritis and validate its correlation with L012, a known ROS/RNS bioluminescence sensor.

[1] = test system: neutrophil-like human HL-60 cells; assay: [^18F]4FN cellular retention in PMA-activated neutrophil-like HL-60 cells; assay type: cell-based; settings: PMA-activated differentiated HL-60 cells, normalized to vehicle
Method: HL-60 cells were first differentiated to yield “neutrophil-like” cells. Then, in parallel, cell aliquots from each batch were imaged with L-012 (to confirm ROS production by bioluminescence) and incubated with 6.2 kBq of [^18F]4FN. To induce ROS, all cells were incubated with PMA. […] Data were quantified as a ratio of the cell-associated radioactive counts per milligram protein over concentration of radiotracer in the extracellular space, and then normalized to vehicle.

Nox2 = assay: PMA ear inflammation model in Nox2 KO mice, PET/CT imaging; assay type: in vivo, mouse; settings: Nox2 KO mice (gp91phox-/-), IP, one-hour post administration
Method: Balb/c mice were treated with either PMA or vehicle and imaged 24 hr post treatment by PET/CT scan at 1 hr post-injection (IP) of [^18F]4FN (FIG. 1A); photograph 3 hr post [^18F]4FN (FIG. 1i). BLI 10 min post luminol injection (FIG. 1C). Aged-matched, 15-week-old female wild-type […] or Nox2 KO mice (n=3 each) were treated with PMA or vehicle and imaged with [^18F]4FN one-hour post IP administration of radiotracer. PET/CT data were quantified using ROIs surrounding the right and left ears. Contrast-to-noise ratios were calculated for all mice and data were plotted as mean and SEM. […] Radioactive HPLC trace and chemical structure of [^18F]4FN (FIG. 1E).
3 Months old Balb/c female mice or 20-26 week-old female C57B16 mice (Taconic) were topically treated with PMA (Sigma) (400 μM) in ethanol on the right ear or vehicle, ethanol, on the left ear. 24 hrs later, inflammation of the right ear was validated by visual inspection for redness and swelling. Mice were then injected IV (unless noted) with [^18F]FN or [^18F]FNS or [^18F]FNG derivatives as noted and PET/CT images were acquired at times indicated, typically 1 hr post injection. Mice, n=3 for [^18F]FN and [^18F]FNS, were euthanized at 1.5 hr post injection for blood metabolism analysis. […]

[2] = Stability in mouse plasma; assay type: in vitro ADME
Method: [^18F]4FN was synthesized on the automated module GE TracerLab-FX from precursor 1 in 6.8±2.5% (n=22) activity yield, by means of a copper-mediated radiofluorination of the corresponding Boc-protected pinacol boronic ester, followed by deprotection, purification and reformulation (Scheme 2; Tredwell et al., 2014). [^18F]4FN was obtained in >99% radiochemical purity, 50-140 GBq/μmol and up to 4 h shelf-stability in PBS (10% EtOH). [^18F]4FN was also stable in mouse plasma for at least 1 h.

Compound: Oc1ccc([18F])c2ccccc12 [[^18F]4FN, 4-[^18F]fluoro-1-naphthol]
- correlation of PET accumulation in inflamed ankles with L012 bioluminescence (LPS-induced arthritis; 1 hr, per animal basis): correlated strongly with L012; also recorded: directly correlated
- imaging of inflammatory ROS burst by PET (LPS-induced arthritis; C57BL6/N mice, LPS i.a. left ankle, i.v. tracer): readily image the inflammatory ROS burst
- [^18F]4FN retention in activated cells vs vehicle (ratio) [1]: > 1
- difference between inflamed and non-inflamed ear in Nox2 KO mice versus WT (Nox2): substantially smaller compared to WT inflamed mice; also recorded: decreased contrast between PMA-treated and untreated ears
- stable in mouse plasma [2]: at least 1 h
